Where a SMILES comes first, the peptide text is derived from it. The star is where a group is joined. Cbz = O=C(OCc1ccccc1)*
Key:
Zip14 expression [1] = experiment: Zip14 qRT-PCR in human primary skeletal myoblasts treated with cytokines and signaling pathway inhibitors; assay type: cell-based; conditions: human primary muscle cells; for Zip14 expression after recombinant cytokine treatment: TNFα 50 ng/ml, TGFβ 10 ng/ml
Experimental: (§1) Treatment with cytokines and signaling pathway inhibitors: Murine C2C12 myoblasts and human primary skeletal myoblasts were serum-starved overnight, and then treated with or without inhibitors of the TGFβ/Smad, […] pathways, which are SB431542 (purchased from Thermo Fisher), CC401 (purchased from Thermo Fisher) and BAY 11-7085 (purchased from Enzo), respectively, followed by treatment with recombinant cytokines purchased from R&D Systems (recombinant mouse TNFα and TGFβ1 at 50 ng/ml and 10 ng/ml, respectively, for C2C12, recombinant human TNFα and TGFβ1 at 50 ng/ml and 10 ng/ml, respectively, for human primary skeletal myoblasts). Cells were pretreated with either vehicle (DMSO) control, or 10 μM of the respective pathway inhibitors for 1 hour, and then treated with TGFβ1 for 9 hours or TNFα for 3 hours before harvest. Cells with different treatments were harvested together for subsequent analysis.

Zip14 expression [2] = experiment: Zip14 qRT-PCR in murine C2C12 myoblasts treated with cytokines and signaling pathway inhibitors; assay type: cell-based, mouse; conditions: for Zip14 expression after recombinant cytokine treatment: murine C2C12 myoblasts, TNFα 50 ng/ml, TGFβ 10 ng/ml
Experimental: as §1

4T1 tumor-bearing mice = experiment: Zinc chelator injection in 4T1 tumor-bearing mice; assay type: in vivo, mouse; conditions: 150 mg/kg body weight daily from 7 days post-tumor cell injection, 4 weeks
Experimental: The effects of zinc chelator injection were analyzed using healthy or C26m2 tumor bearing mice. Excess zinc supplementation exacerbates muscle wasting, while zinc chelation reduces muscle wasting in tumor-bearing mice. […] (A-B) Healthy or C26m2 tumor bearing mice of the indicated genotypes (Zip14 WT or KO) were either treated with regular or zinc-enriched water (25 mM) from the day of tumor cell injection and muscles were collected after […]. Body weight analysis (A) and relative MuRF1/MAFBx mRNA expression levels indicative of muscle wasting (B) are shown. C. Mice were injected with 4T1 tumor cells and were divided into 3 groups, one was provided with regular diet with 86 ppm zinc, second group with 1000 ppm zinc-supplemented diet (high zinc diet) and third group with regular diet with 86 ppm zinc but with zinc chelator injected daily with Sodium diethyldithiocarbamate trihydrate (DEDTC) at 150 mg/kg body weight injected 7 days post-tumor cell injection. Mice were sacrificed after 4 weeks post-tumor cell injection. In all experiments, n=3-8 per group. ns, not significant. *p≤0.05, **p≤0.01, ***p≤0.001 and ****p≤0.0001.

[3] = test system: myosin heavy chain (MyHC); experiment: Zinc and MG132 treatment of differentiated C2C12 muscle cells (immunoblot of myofibrillar proteins); assay type: cell-based, mouse
Experimental: (§2) Zinc and MG132 treatment of muscle cells: 3-day differentiated C2C12 cells were cultured with 50 μM ZnCI2 in differentiation medium for 24 hours. Cells were then used for immunofluorescence staining, gene expression analysis and immunoblot analysis. For MG-132 (benzyloxycarbonylleucyl-leucyl-leucine aldehyde, a proteasome inhibitor) treatment, 3-day differentiated C2C12 cells expressing Zip14 (Adeno-Zip14) were treated with 50 μM ZnCI2 for 24 hours, and then treated with either vehicle (DMSO) or MG132 (50 μM) for 3 hours prior to harvest for immunoblot analysis.
Subcellular fractionation of differentiated C2C12 muscle cells: Fractionation of soluble and myofibrillar components was performed. Differentiated C2C12 muscle cells were collected in cold lysis buffer (20 mM of Tris-HCl pH 7.2, 5 mM of EGTA, 100 mM of KCl, 1% Triton X-100, and 1× protease and phosphatase inhibitor cocktail), and lysed by gentle agitation at 4° C. for 1 h. After centrifugation at 3,000×g for 30 mins at 4° C., the cytosolic fraction (supernatant) was collected and stored in −80° C. The pellet (myofibrils) was washed twice with wash buffer (20 mM of Tris-HCl, pH 7.2, 100 mM of KCl, and 1 mM of DTT). After centrifugation at 3,000×g for 10 mins at 4° C., myofibrillar fraction was extracted in ice-cold extraction buffer (0.6 M of KCl, 1% Triton X-100, 2 mM of EDTA, 1 mM of DTT and 1× protease and phosphatase inhibitor cocktail) with shaking at 4° C. The purified myofibrillar fraction was collected after centrifugation for 3,000×g at 4° C. and stored in −80° C. until further use.

[4] = test system: C26m2 tumor-bearing Zip14 WT and KO mice; experiment: Zinc-supplemented water treatment for mice; assay type: in vivo, mouse
Experimental: (§3) Zinc-supplemented water treatment for mice: ZnS04 solution was purchased from Sigma. Zip14 WT and KO mice were given either regular water or zinc-supplemented drinking water (25 mM ZnS04 in their drinking water). Zinc water was started from the day of tumor injection in the tumor-bearing group and in matched uninjected controls, which continued until the animals were euthanized at 15 days. Tumors were not resected because cachectic symptoms started to develop early and were visible between 8-10 days in the tumor-bearing Zip14 WT group of mice on zinc-enriched water.

[5] = Food and water intake, behavioral coordination, liver and kidney function with zinc-supplemented water; assay type: in vivo, mouse; conditions: C26m2 tumor-bearing mice with excess zinc supplementation
Experimental: as §3
Behavioral coordination tests in mice: Rotamex-5 (Columbus Instruments) with a rod diameter of 3 cm, was used for testing coordination in mice. In this setup, automatic fall detection is implemented within each lane by a series of photocells placed above the rotating rod. The speed of the rotating rod is programmed for either constant or accelerated modes. […] Latency to fall is detected with 0.1 second temporal resolution. […] For each mouse, an average of 3 runs are recorded, with 5 minutes rest between each run. The speed that the rod is spinning at when the mouse falls is measured in RPMs. The time it takes for the mouse to fall is measured in seconds. […] When the mice fall off the speed of the rod and amount of time the mouse was on the rod are recorded. […]

[6] = test system: Zip14-expressing myoblasts; experiment: Muscle differentiation assays with zinc; assay type: cell-based, mouse
Experimental: Adenoviral infection: C2C12 cells or mouse primary myoblasts were cultured overnight. C2C12 cells were infected with adenovirus expressing either GFP (green fluorescent protein) control (Adeno-GFP) or mouse Zip14 (Adeno-Zip14, purchased from Vector Biolabs). Primary myoblasts were infected with adenovirus expressing either GFP control (Adeno-GFP) or mouse Zip14 (Adeno-Zip14).
Muscle differentiation assays: Differentiation was initiated after adenoviral infection by switching the growth medium to differentiation medium (DMEM containing 2% horse serum and 5 μg/ml of insulin for C2C12 cells; DMEM containing 2% horse serum without insulin for primary myoblasts) the day after infection. Differentiation medium was changed at designated time-points.
as §2

C2C12 cells = experiment: Cell viability assay (MTS, cleaved caspase-3); assay type: cell-based; conditions: Zip14-expressing cells; 50 μM ZnCl2 24 h
Experimental: Cell viability assay: Viability of C2C12 cells was determined by MTS assay (a cell proliferation assay based on a colorimetric method for quantification of viable cells in proliferation and cytotoxicity assay) using CellTiter 96® Aqueous One Solution Cell Proliferation Assay kit (purchased from Promega) containing tetrazolium compound. C2C12 cells infected with Adeno-GFP control or Adeno-Zip14 were plated in growth media and differentiated. Cells were treated with 50 μM of ZnCl2 for 24 h. Cell viability was measured by adding 100 μl of growth medium without phenol red to each well after aspirating media from the wells. 20 μl of CellTiter 96 AGueous One Solution Reagent was added to each well. After 1 hour of incubation at 37° C. in CO2 incubator, the amount of soluble formazan was determined by absorbance at 450 nm. Undifferentiated and differentiated C2C12 cells were collected for immunoblot analysis probing for cleaved-caspase-3 expression to assess cell-death. C2C12 cells treated with the indicated doses of doxorubicin (doxo) (purchased from Sigma) served as positive control for both types of viability assays.

[7] = Zip14-expressing myotubes treated with zinc (50 μM) for 24 hours
[8] = Zip14-wild-type tumor-bearing mice (C26m2), 25 mM ZnSO4 drinking water

In the case of CC(C)(C)c1ccc(S(=O)(=O)/C=C/C#N)cc1 [Bay11-7085], the “Zip14 expression (TNFα-induced)” value (Zip14 expression [1]; TNFα 50 ng/ml 3 hours, 10 μM inhibitor pretreated 1 hour, qRT-PCR) is reported as “blocked” and the “Zip14 expression (TNFα-induced)” value (Zip14 expression [2]; murine C2C12 cells, TNFα 50 ng/ml 3 hours, 10 μM inhibitor pretreated 1 hour, qRT-PCR) is reported as “blocked”.

For CCN(CC)C(=S)[S-].O.O.O.[Na+] [DEDTC, Sodium diethyldithiocarbamate trihydrate], the muscle wasting (4T1 tumor-bearing mice) was “reduces”.

In the case of CC(C)C[C@@H](C=O)NC(=O)[C@H](CC(C)C)NC(=O)[C@H](CC(C)C)NC(=O)OCc1ccccc1 [MG132, benzyloxycarbonylleucyl-leucyl-leucine aldehyde, reference compound] (Cbz-Leu-Leu-Leu-aldehyde), the MyHC loss ([3]; Zip14-expressing 3-day differentiated C2C12, 50 μM ZnCl2 24 h, MG132 50 μM 3 hours prior to harvest) is reported as “could be blocked”.

In the case of NC(=O)c1ccc(-c2nc(-c3ccc4c(c3)OCO4)c(-c3ccccn3)[nH]2)cc1 [SB431542], the “Zip14 expression (TGFβ-induced)” value (Zip14 expression [1]; TGFβ 10 ng/ml 9 hours, 10 μM inhibitor pretreated 1 hour, qRT-PCR) is reported as “blocked” and the “Zip14 expression (TGFβ-induced)” value (Zip14 expression [2]; murine C2C12 cells, TGFβ 10 ng/ml 9 hours, 10 μM inhibitor pretreated 1 hour, qRT-PCR) is reported as “blocked”.

In the case of [Zn] [zinc], the MyHC protein [3, 7] is reported as “striking loss”, the “skeletal actin, tropomyosin, troponin, desmin and myosin light chain (MyLC) protein” value [3, 7] is reported as “remained unchanged” and the body weight loss [4, 8] is reported as “substantial acceleration”. For the same compound, the muscle atrophy [4, 8] was “increase”, the growth kinetics ([4]; absence of tumors, Zip14-wild-type and knockout mice, 25 mM ZnSO4 drinking water) was “no detrimental effect” and the muscle wasting ([4]; tumor-bearing mice, zinc-enriched water (25 mM) or 1000 ppm zinc-supplemented diet) was “exacerbates”. For the same compound, the “food or water intake, behavior, liver or kidney function” value [5] was “No changes”, the “differentiation of myoblasts (MyHC expression, morphology)” value ([6]; Zip14-expressing C2C12 and primary myoblasts, 50 μM ZnCl2) was “selectively blocked” and the “MyoD, Mef2c, and Myf5 transcription” value ([6]; Zip14-expressing C2C12 myoblasts, 50 μM ZnCl2 24 hours, qRT-PCR) was “transcriptional repression”. The viability (C2C12 cells) was “no loss”.

With “TGFβ: recombinant mouse or human TGFβ1 cytokine from R&D Systems” the “Zip14 expression after recombinant cytokine treatment” value (Zip14 expression [1]) was “significantly induced” and the “Zip14 expression after recombinant cytokine treatment” value (Zip14 expression [2]) was “significantly induced”.

In the case of TNFα, the “Zip14 expression after recombinant cytokine treatment” value (Zip14 expression [1]) is reported as “significantly induced” and the “Zip14 expression after recombinant cytokine treatment” value (Zip14 expression [2]) is reported as “significantly induced”.

— US20210071183A1, “ZINC ASSOCIATED TREATMENT FOR AND DIAGNOSIS OF CACHEXIA” (THE TRUSTEES OF COLUMBIA UNIVERSITY IN THE CITY OF NEW YORK, priority 2018, published 2021)
